Reference: patent publication US20170234881A1, “METHODS OF DIAGNOSING AND TREATING CANCER” (INSERM ( INSTITUT NATIONAL DE LA SANTÉ ET DE LA RECHERCHE …, priority 2014, published 2017)

How the values were obtained:
[1] = system: HSD1-transfected MCF7 cells; assay: Proliferation of 11βHSD1-transfected MCF7 cells (BrDU); type: cell-based, human; conditions: 5 μM OCDO for 24 h
Method: FIG. 5. Ectopic expression of 11βHSD1 in MCF7 inhibits cell proliferation and OCDO reverses this effect. MCF7 cells were transfected by electroporation with a plasmid coding either the enzymes 11βHSD1 (HSD1) or the control empty vector (mock) and analyzed as followed: (A) the expression of 11βHSD1 was confirmed by immunoblotting using specific antibody against 11βHSD1 and normalized with actin; (B) The production of CT was determined by incubating the mock or the HSD1-transfected cells with ^14C-OCDO for 72 h at 37° C. The radioactive metabolites of interest were analyzed as in the legend of FIG. 4B. (C) The proliferation of the mock- or the HSD1-transfected MCF7 cells treated or not with 5 μM OCDO for 24 h were analyzed as in FIG. 2A. The results in B and C are the mean (±s.e.m) of three to five experiments, **P<0.01, ***P<0.001 (Student's t-test), ns: non specific.
MCF7 or HEK293T cells (5×10^6 cells) were transfected with 5 μg of the indicated plasmid using the NEON Transfection System and according to the manufacturer's recommendations. […] Several clones were analyzed by immunoblot analysis and real time RT-qPCR for the knock down of the expression of the protein of interest. […]

MCF7 cells = assay: Cell proliferation assay (BrDU incorporation), MCF7; type: cell-based, human; conditions: MCF7 cells treated 24 h, concentration-dependent, level reached
Method: FIG. 2. OCDO is a tumor promoter in vitro and in vivo and its inhibition contributes to the anti-tumor effects of Tam and DDA. (A, B) Histograms representing the effect of OCDO or 17β-estrogen (E2) on MCF7 (A) and TS/A (B) cell proliferation after 24 h treatment using a colorimetric immunoassay measuring BrDU incorporation in DNA (C, D) Histogram representing the effect of OCDO on MCF7 (C) and TS/A (D) cell invasion. Data are the mean of three separate experiments (±[…]) Mice were implanted s.c. with MCF7 (E) or TS/A (F) cells and animals (8 per group) were treated s.c. every day starting on the day of implantation with either the solvent vehicle or OCDO (16 μg/kg for MCF7 or 50 μg/kg for TS/A). Animals were monitored for tumour growth twice a week. The data are representative of three independent experiments. The mean tumor volume±s.e.m is shown, *P<0.05, **P<0.01, ***P<0.001 (analysis of variance (ANOVA), Dunnett's post test). […] (I, J, K). Murine […], or human MDA-MB231 (J) or MDA-MB468 (K) cells implanted s.c. into mice (8 per group) and animals were treated s.c. with either the solvent vehicle or OCDO (16 μg/kg for MDA-MB-231 and MDA-MB-468 or 50 μg/kg for E0771). […] At the end of this time, cells were incubated with BrDU for an additional 8 h and then evaluated for proliferation using the ELISA kit, Roche Diagnostic, as indicated by the manufacturer.

CC(C)CCC[C@@H](C)[C@H]1CC[C@H]2[C@@H]3CC(=O)[C@@]4(O)C[C@@H](O)CC[C@]4(C)[C@H]3CC[C@]12C [OCDO, 6-oxo-cholestan-3β,5α-diol]
effect on the decrease of cell proliferation induced by 11βHSD1 expression [1]: reversed this effect | growth rate (cell proliferation) relative to the control (MCF7 cells): 1.3 fold
